d = 2'-deoxy (DNA); r = 2'-OH (RNA)
B1: recombinant CCN3: recombinant CCN3 protein from Peprotech EC, London, UK (protein, UniProt P48745 32-357, looked up)
CCN family member 3: TQRCPPQCPGRCPATPPTCAPGVRAVLDGCSCCLVCARQRGESCSDLEPCDESSGLYCDRSADPSNQTGICTAVEGDNCVFDGVIYRSGEKFQPSCKFQCTCRDGQIGCVPRCQLDVLLPEPNCPAPRKVEVPGECCEKWICGPDEEDSLGGLTLAAYRPEATLGVEVSDSSVNCIEQTTEWTACSKSCGMGFSTRVTNRNRQCEMLKQTRLCMVRPCEQEPEQPTDKKGKKCLRTKKSLKAIHLQFKNCTSLHTYKPRFCGVCSDGRCCTPHNTKTIQAEFQCSPGQIVKKPVMVIGTCTCHTNCPKNNEAFLQELELKTTRGKM

Key:
CCN3 [1] = test: Real-time PCR of CCN3 expression in CML cell lines (K562) after treatment; assay type: cell-based, human; conditions: for CCN3 expression (in words): CML cell lines; for mean Ct change for CCN3: n=3
Procedure: (§1) K562 cells were nucleofected following the manufacturer's instructions using the Cell Line Nucleofector Kit V, program T-16 (Amaxa GmbH, Cologne, Germany) and transfected with either the appropriate si-RNA, a scrambled si-RNA sequence or a non-silencing fluorescently labeled si-RNA (Amaxa GmbH) to monitor transfection efficiency. […] Leukemia.
(§2) RQ-PCR was performed with an ABI PRISM 7700 Sequence Detector which exploits TaqMan probe based chemistry (Applied Biosystems, Foster City, Calif.). The 5′ reporter used was 6-carboxyfluorescein (FAM) and the 3′ quencher was 6-carboxy-tetramethylrhodamine (TAMRA). Primers and probes for CCN3 were designed against GenBank published sequences in association with Primer Express (Applied Biosystems). […] Leukemia. […] Amplifications were performed following an initial 2-minute incubation at 50° C. to allow uracil-N-glycosylase (UNG) to destroy any contaminating […], followed by treatment at 95° C. for 10 minutes to inactivate the UNG enzyme and activate the AmpliTaq Gold DNA polymerase. This was followed by 40 to 45 cycles of denaturing at 95° C. for 15 seconds and annealing/extension at 60° C. for 1 minute. Data were collected and analysed with Sequence Detector v1.6.3 software (Applied Biosystems).

CCN3 [2] = test: Western blot of cellular and secreted CCN3 in CD34+ cells from CML patients treated in vitro; assay type: cell-based, human; conditions: CD34+ cells from three CML patients at diagnosis, imatinib 1 μM, 72 hours in vitro
CCN3 [3] = test: Real-time PCR of CCN3 in bone marrow of CML patients at diagnosis and following treatment; assay type: in vivo, human; conditions: three CML patients, diagnosis vs following treatment
Description: Leukemia. 2003; 17:2474-2486).

BCR-ABL = test: Real-time PCR of BCR-ABL expression in CML cell lines (K562) after treatment; assay type: cell-based, human
Procedure: as §1, §2

CCN3 [4] = test: Extracellular (secreted) CCN3 protein levels in K562 after siRNA to BCR-ABL; assay type: cell-based, human; conditions: K562 cells, n=3
Procedure: Protein was extracted from cells by suspending in RIPA buffer (1×PBS, 1% Nonidet NP-40, 0.1% SDS) containing a cocktail of protease Inhibitors (Complete Mini Cocktail, Roche Diagnostics Ltd, Lewes, UK) at a concentration of 10^7 cells/mL and lysing for 10 minutes on ice. Samples were sonicated for 10 seconds to ensure complete lysis, centrifuged at 10,000 g at 4° C. for 10 minutes and the supernatant removed for analysis. Total protein content was determined by the […] using the BCA protein assay kit (Pierce, Cramlington, UK). Protein (15 μg) was loaded onto a pre-cast Bis-Tris polyacrylamide gel (10%) using the Novex mini gel system (Invitrogen, Paisley, UK) and subsequently transferred to a PVDF membrane. CCN3 expression was detected using an antibody raised against the C terminus of CCN3. Equivalent protein loading was controlled by monitoring actin expression using a pan-actin antibody (Cell Signalling Technology Inc, MA). Immunoblots were visualised by enhanced chemiluminescence (Supersignal, Pierce). Optical densitometry was performed using the […] (Ultra-Violet Products Ltd., Cambridge, UK) and corrected for protein loading. CCN3 protein is glycosylated and binds to heparin. Medium in which ts BCR-ABL FDCP-Mix or control cells had been grown for 24 hours was harvested and enriched for CCN3 protein using heparin sepharose. […]

K562 cells = test: Flow cytometric cell cycle analysis (sub-G0) of K562 cells treated with exogenous recombinant CCN3; assay type: cell-based, human; conditions: 100 ng/ml CCN3, 48 hours
Procedure: K562 cells (1×10^6 cells/well) were treated with recombinant CCN3 (100 ng/ml, Peprotech EC, London, UK) in vitro for 48 hours. Cells were then fixed in 70% ethanol for flow cytometric analysis of cell cycle status as before.

[5] = K562 cells, siRNA 0.5 μg/10^8 cells, 24 hours

Molecule | CCN3 expression (in words) (CCN3 [1]) | mean Ct change for CCN3 (CCN3 [1]; K562 cells, 1 μM imatinib, 96 hours) | cellular and secreted CCN3 expression (in words) (CCN3 [2]) | CCN3 expression following treatment (in words) (CCN3 [3]) | BCR-ABL expression (in words) (BCR-ABL; CML cell lines) | fold decrease in BCR-ABL (BCR-ABL; [5]) | mean Ct change for BCR-ABL (BCR-ABL; K562 cells, siRNA to BCR-ABL, n=3) | fold increase in CCN3 (CCN3 [1]; [5]) | mean Ct change for CCN3 (CCN3 [1]; K562 cells, siRNA to BCR-ABL) | decrease in secreted levels of CCN3 protein (CCN3 [4]) | sub-G0 peak (K562 cells)
Cc1ccc(NC(=O)c2ccc(CN3CCN(C)CC3)cc2)cc1Nc1nccc(-c2cccnc2)n1 [imatinib] | increased CCN3 expression | 2.1±0.2 | significant increase in both cellular and secreted CCN3 expression | reciprocal rise in CCN3 | – | – | – | – | – | – | –
si-RNA directed against BCR-ABL: 21-base si-RNA directed against the fusion sequence of BCR-ABL, SEQ ID NO 9 sense, SEQ ID NO 10 antisense (sense GCAGAGUUCAAAAGCCCUUTT; antisense AAGGGCUUUUGAACUCUGCTT; sugars from the 5' end r19 d2, backbone not given here) | increased CCN3 expression | – | – | – | significantly reduced BCR-ABL | 3.7 fold | 1.9±0.2 | 6.1 fold | 2.6±0.5 | 33±5% | –
B1 | – | – | – | – | – | – | – | – | – | – | 23.7±6.9%

Source: patent US20100004169A1, “CCN3 peptide” (The Queen's University of Belfast, priority 2006, published 2010)
